Patent US12240840B2, “Amide-substituted heterocyclic compounds for the treatment of conditions related to the modulation of IL-12, IL-23 and/or IFN-alpha” (BRISTOL-MYERS SQUIBB COMPANY, priority 2018, dated 2025)

System: IFNα-induced pSTAT5 (pY694) in CD3 positive cells of human whole blood
Test: IFNα-Induced STAT Phosphorylation in Human Whole Blood
Type: cell-based
Settings: Homo sapiens, 1 h compound incubation, 1000 U/mL recombinant human IFNα A/D for 15 min, pSTAT5 in CD3 positive population, read-out: Human WB IFNα-Induced Stat Phosph. (IC50)
Experimental: IFNα-Induced STAT Phosphorylation in Human Whole Blood
After an hour long incubation with compound, human whole blood (drawn with either EDTA or ACD-A as anti-coagulant) was stimulated with 1000 U/mL recombinant human IFNα A/D (R&D Systems 11200-2) for 15 min. The stimulation was stopped by adding Fix/Lyse buffer (BD 558049). Cells were stained with a CD3 FITC antibody (BD 555916), washed, and permeabilized on ice using Perm III buffer (BD 558050). Cells were then stained with an Alexa-Fluor 647 pSTAT5 (pY694) antibody (BD 612599) for 30 min prior to analysis on the FACS Canto II. The amount of pSTAT5 expression was quantitated by median fluorescence intensity after gating on the CD3 positive population.
IFNα-Induced STAT Phosphorylation in Human Whole Blood Inhibition Data ND—no data available

Structure (SMILES)	IC50 [nM]
[2H]C([2H])([2H])NC(=O)c1nnc(NC(=O)C2CC2)cc1Nc1cccc(-c2nc(CN3CCN(C(=O)OC(C)(C)C)CC3)no2)c1OC [Example 135]	2010
[2H]C([2H])([2H])NC(=O)c1nnc(NC(=O)C2CC2)cc1Nc1cccc(-c2nc(CN3CCN(C(=O)NCC)CC3)no2)c1OC [Example 136]	1130
[2H]C([2H])([2H])NC(=O)c1nnc(NC(=O)C2CC2)cc1Nc1cccc(-c2nc(CN3CCN(C(=O)OC(C)(C)C)CC3=O)no2)c1OC [Example 137]	2640
[2H]C([2H])([2H])NC(=O)c1nnc(NC(=O)C2CC2)cc1Nc1cccc(-c2nc(CN3CCN(C(=O)OC)CC3)no2)c1OC [Example 138]	180
[2H]C([2H])([2H])NC(=O)c1nnc(NC(=O)C2CC2)cc1Nc1cccc(-c2nc(CN3CCN(C(=O)CC#N)CC3=O)no2)c1OC [Example 139]	410
[2H]C([2H])([2H])NC(=O)c1nnc(NC(=O)C2CC2)cc1Nc1cccc(-c2nc(CN3CCN(C(C)=O)CC3=O)no2)c1OC [Example 140]	330
[2H]C([2H])([2H])NC(=O)c1nnc(NC(=O)C2CC2)cc1Nc1cccc(-c2nc(CN3CCN(S(C)(=O)=O)CC3=O)no2)c1OC [Example 141]	240
[2H]C([2H])([2H])NC(=O)c1nnc(NC(=O)C2CC2)cc1Nc1cccc(-c2nc(CNC(=O)OC(C)(C)C)no2)c1OC [Example 142]	5310
[2H]C([2H])([2H])NC(=O)c1nnc(NC(=O)C2CC2)cc1Nc1cccc(-c2nc(CN)no2)c1OC [Example 143]	320
[2H]C([2H])([2H])NC(=O)c1nnc(NC(=O)C2CC2)cc1Nc1cccc(-c2nc(COCc3ccccc3)no2)c1OC [Example 144]	1000
[2H]C([2H])([2H])NC(=O)c1nnc(NC(=O)C2CC2)cc1Nc1cccc(-c2nc(CNC(C)=O)no2)c1OC [Example 145]	270
[2H]C([2H])([2H])NC(=O)c1nnc(NC(=O)C2CC2)cc1Nc1cccc(-c2nc(CNS(C)(=O)=O)no2)c1OC [Example 146]	210
[2H]C([2H])([2H])NC(=O)c1nnc(NC(=O)C2CC2)cc1Nc1cccc(-c2nc(CNC(=O)CN(C)C)no2)c1OC [Example 147]	1720
[2H]C([2H])([2H])NC(=O)c1nnc(NC(=O)C2CC2)cc1Nc1cccc(-c2nc(CNC(=O)CC#N)no2)c1OC [Example 148]	1820
[2H]C([2H])([2H])NC(=O)c1nnc(NC(=O)C2CC2)cc1Nc1cccc(-c2nc(C3(NC(=O)COC)CC3)no2)c1OC [Example 149]	1950
[2H]C([2H])([2H])NC(=O)c1nnc(NC(=O)C2CC2)cc1Nc1cccc(-c2nc(C3(NC(=O)OC(C)(C)C)CC3)no2)c1OC [Example 150]	> 10000
[2H]C([2H])([2H])NC(=O)c1nnc(NC(=O)C2CC2)cc1Nc1cccc(-c2nc(C3(NC(=O)CC#N)CC3)no2)c1OC [Example 151]	1550
[2H]C([2H])([2H])NC(=O)c1nnc(NC(=O)C2CC2)cc1Nc1cccc(-c2nc(CNC(=O)COC)no2)c1OC [Example 152]	1310
[2H]C([2H])([2H])NC(=O)c1nnc(NC(=O)C2CC2)cc1Nc1cccc(-c2nc(CNC(=O)CN(C)C(=O)OC(C)(C)C)no2)c1OC [Example 153]	> 10000
[2H]C([2H])([2H])NC(=O)c1nnc(NC(=O)C2CC2)cc1Nc1cccc(-c2nc(CNC(=O)CNC)no2)c1OC [Example 154]	1110
[2H]C([2H])([2H])NC(=O)c1nnc(NC(=O)C2CC2)cc1Nc1cccc(-c2nc(CNC(=O)CN)no2)c1OC [Example 155]	780

Next, values leading:

IC50 [nM]	Structure (SMILES)
630	[2H]C([2H])([2H])NC(=O)c1nnc(NC(=O)C2CC2)cc1Nc1cccc(-c2nc(C3(N)CC3)no2)c1OC [Example 156]
> 10000	[2H]C([2H])([2H])NC(=O)c1nnc(NC(=O)C2CC2)cc1Nc1cccc(-c2nc(CNC(=O)CNC(=O)OC(C)(C)C)no2)c1OC [Example 157]
400	[2H]C([2H])([2H])NC(=O)c1nnc(NC(=O)C2CC2)cc1Nc1cccc(-c2nc(CN3C[C@@H](C)O[C@@H](C)C3)no2)c1OC [Example 158]
1080	[2H]C([2H])([2H])NC(=O)c1nnc(NC(=O)C2CC2)cc1Nc1cccc(-c2nc(CNC(=O)CN3CCOCC3)no2)c1OC [Example 159]
1790	[2H]C([2H])([2H])NC(=O)c1nnc(NC(=O)C2CC2)cc1Nc1cccc(-c2nc(CNC(=O)CN3CCN(C)CC3)no2)c1OC [Example 160]
9420	[2H]C([2H])([2H])NC(=O)c1nnc(NC(=O)C2CC2)cc1Nc1cccc(-c2nc(CNC(=O)CN3CCN(C(=O)OC(C)(C)C)CC3)no2)c1OC [Example 161]
2730	[2H]C([2H])([2H])NC(=O)c1nnc(NC(=O)C2CC2)cc1Nc1cccc(-c2nc(CNC(=O)CN3CCNCC3)no2)c1OC [Example 162]
1760	[2H]C([2H])([2H])NC(=O)c1nnc(NC(=O)C2CC2)cc1Nc1cccc(-c2nc(CNC(=O)CN3CCN(S(C)(=O)=O)CC3)no2)c1OC [Example 163]
200	[2H]C([2H])([2H])NC(=O)c1nnc(NC(=O)C2CC2)cc1Nc1cccc(-c2nc(CN3CCS(=O)(=O)CC3)no2)c1OC [Example 164]
530	[2H]C([2H])([2H])NC(=O)c1nnc(NC(=O)C2CC2)cc1Nc1cccc(-c2nc(C3(NC(C)=O)CC3)no2)c1OC [Example 165]
2420	[2H]C([2H])([2H])NC(=O)c1nnc(NC(=O)C2CC2)cc1Nc1cccc(-c2nc(CN(C)C(=O)OC(C)(C)C)no2)c1OC [Example 167]
230	[2H]C([2H])([2H])NC(=O)c1nnc(NC(=O)C2CC2)cc1Nc1cccc(-c2nc(CNC)no2)c1OC [Example 168]
110	[2H]C([2H])([2H])NC(=O)c1nnc(NC(=O)C2CC2)cc1Nc1cccc(-c2nc(CN(C)S(C)(=O)=O)no2)c1OC [Example 169]
570	[2H]C([2H])([2H])NC(=O)c1nnc(NC(=O)C2CC2)cc1Nc1cccc(-c2nc(CN(C)C(=O)COC)no2)c1OC [Example 170]
690	[2H]C([2H])([2H])NC(=O)c1nnc(NC(=O)C2CC2)cc1Nc1cccc(-c2nc(CN(C)C(=O)CC#N)no2)c1OC [Example 171]
1440	[2H]C([2H])([2H])NC(=O)c1nnc(NC(=O)C2CC2)cc1Nc1cccc(-c2nc(CN(C)C(=O)CN(C)C)no2)c1OC [Example 172]
300	[2H]C([2H])([2H])NC(=O)c1nnc(NC(=O)C2CC2)cc1Nc1cccc(-c2nc(CN(C)C(C)=O)no2)c1OC [Example 173]
560	[2H]C([2H])([2H])NC(=O)c1nnc(NC(=O)C2CC2)cc1Nc1cccc(-c2nc(CO)no2)c1OC [Example 174]
660	[2H]C([2H])([2H])NC(=O)c1nnc(NC(=O)C2CC2)cc1Nc1cccc(-c2nc(CN(CCOC)CCOC)no2)c1OC [Example 175]
450	[2H]C([2H])([2H])NC(=O)c1nnc(NC(=O)C2CC2)cc1Nc1cccc(-c2nc(CC(=O)NCCOC)no2)c1OC [Example 176]
1030	[2H]C([2H])([2H])NC(=O)c1nnc(NC(=O)C2CC2)cc1Nc1cccc(-c2nc(CC(=O)NCCO)no2)c1OC [Example 177]
550	[2H]C([2H])([2H])NC(=O)c1nnc(NC(=O)C2CC2)cc1Nc1cccc(-c2nc(CC(=O)NCC)no2)c1OC [Example 178]
